Measurements as given in US3962446A, “Analgesic compositions containing 2-cyanoalkylbenzomorphan derivatives and salts thereof” (priority 1971, dated 1976).
Read-outs that look alike come from different tables or passages of the source.

How the values were obtained:
[1] = Subcutaneous writhing test (antagonism of the syndrome produced by intraperitoneal acetic acid); format: in vivo, mice; settings: Mus musculus, sc
Experimental: […]. Note: The test was based on the specific antagonism of the test compound to the typical syndrome produced by intraperitoneal injection of 0.6% aqueous acetic acid. The syndrome was characterized by intermittent contractions of the abdomen, twisting and turning of the trunk and extension of the hind legs. A group of 5 mice was used for each dose level. The test compound was administered subcutaneously 20 minutes before the injection of acetic acid. […] The ED50 value was calculated according to the Litchfeld-Wilcoxon's method.

[2] = Abstinence syndrome (bodyweight decrease) on the day after drug withdrawal following 4 weeks of subcutaneous dosing; format: in vivo, male rats of Wistar strain; design: key: +++: severe decrease (about 5% decrease); ++: moderate decrease; +: mild decrease; -: no decrease; settings: male Wistar rats, 20 mg/kg/day for 4 weeks, subcutaneous twice a day
Experimental: Compound for 4 weeks) syndrome
Note: Groups of male rats of Wistar strain (bodyweight, 150 g), each grou
consisting of 20 male rats, were subcutaneously given the test compound
twice a day for 4 consecutive weeks. On the next day after drug
withdrawal, the bodyweight was measured. The symbols have the following
meanings: +++, severe decrease (about 5% decrease); ++, moderate decrease
+, mild decrease; -, no decrease. The marked decrease is taken as an […]

[3] = cited from earlier work
[4] = Long term animal tests for addiction / physical dependency (daily oral or subcutaneous administration for over one month); format: in vivo; settings: rats, orally or subcutaneously every day for over one month
Description: On account of this addiction liability, these analgesics are severely restricted in a therapeutic use.

[5] = mice, subcutaneous, 20 minutes before 0.6% acetic acid i.p., Litchfeld-Wilcoxon's method, read-out: ED50

## CN1CC[C@]23c4c5ccc(O)c4O[C@H]2[C@@H](O)C=C[C@H]3[C@H]1C5 [Morphine, reference compound]
[1]
  ED50: 1.4 mg/kg

## COc1ccc2c3c1O[C@H]1[C@@H](O)C=C[C@H]4[C@@H](C2)N(C)CC[C@@]341 [Methylmorphine, reference compound]
[1]; [5]
  ED50: 14 mg/kg

## CCC1C2Cc3ccc(O)cc3C1(C)CCN2CCCC#N (centres unmarked) [2'-Hydroxy-2-(γ-cyanopropyl)-5-methyl-9-ethyl-6,7-benzomorphan]
[2]
  Abstinence syndrome: -
[1]; [5]
  ED50: 1.5 mg/kg

## CC1C2Cc3ccc(O)cc3C1(C)CCN2C (centres unmarked) [2'-Hydroxy-2,5,9-trimethyl-6,7-benzomorphan, reference compound]
[2]
  Abstinence syndrome: ++
[1]; [5]
  ED50: 3.5 mg/kg
[3]; prior art compounds
  addiction liability: show an addiction liability
[3]; prior art, U.S. Pat. No. 3,138,603
  analgesic activity: potent analgesic activity

## CCC1C2Cc3ccc(O)cc3C1(CC)CCN2CCCC#N (centres unmarked) [2'-hydroxy-2-(γ-cyanopropyl)-5,9-diethyl-6,7-benzomorphan]
[2]
  Abstinence syndrome: -
[1]; [5]
  ED50: 0.3 mg/kg

## CC(=O)Oc1ccc2c(c1)C1(C)CCN(CCC#N)C(C2)C1C (stereo not drawn) [2'-Acetoxy-2-(β-cyanoethyl)-5,9-dimethyl-6,7-benzomorphan]
[2]
  Abstinence syndrome: -
[1]; [5]
  ED50: 0.5 mg/kg
[4]
  addiction / physical dependency: do not show addiction in long term animal tests

## CC12CCN(CCC#N)C(Cc3ccccc31)C2 (stereo not drawn) [2-(β-Cyanoethyl)-5-methyl-6,7-benzomorphan]
[2]
  Abstinence syndrome: -

## CC12CCN(CCC#N)C(Cc3ccc(O)cc31)C2 (stereo not drawn) [2'-Hydroxy-2-(β-cyanoethyl)-5-methyl-6,7-benzomorphan]
[2]
  Abstinence syndrome: -
[1]; [5]
  ED50: 2.9 mg/kg
[4]
  addiction / physical dependency: do not show addiction in long term animal tests

## CC(C)=CCN1CCC2(C)c3cc(O)ccc3CC1C2C (centres unmarked) [Pentazocine, 2'-hydroxy-2-(3"-methyl-2"-butenyl)-5,9-dimethyl-6,7-benzomorphan, reference compound]
[1]; [5]
  ED50: 17.5 mg/kg

## CC1C2Cc3ccc(O)cc3C1(C)CCN2CCCC#N (centres unmarked) [2'-Hydroxy-2-(γ-cyanopropyl)-5,9-dimethyl-6,7-benzomorphan]
[2]
  Abstinence syndrome: -
[1]; [5]
  ED50: 3 mg/kg

## CC1C2Cc3ccc(O)cc3C1(C)CCN2CCC#N (stereo not drawn) [2'-Hydroxy-2-(β-cyanoethyl)-5,9-dimethyl-6,7-benzomorphan]
[2]
  Abstinence syndrome: -
[1]; [5]
  ED50: 0.9 mg/kg
[4]
  addiction / physical dependency: do not show addiction in long term animal tests

## CCC12CCN(CCCC#N)C(Cc3ccc(O)cc31)C2C (centres unmarked) [2'-hydroxy-2-(γ-cyanopropyl)-5-ethyl-9-methyl-6,7-benzomorphan]
[2]
  Abstinence syndrome: -
[1]; [5]
  ED50: 0.19 mg/kg
[4]
  addiction / physical dependency: do not show addiction in long term animal tests
